# Data reported in patent US20070099879A1 (priority 2005, published 2007).
# Entries after “also recorded” stand apart in the source; their conditions may differ.
# Tests used:
# [1] = system: VEGF; test: Western blot of VEGF in whole eye extracts of P15 mice during OIR; type: in vivo, mouse
# Protocol: Vascular endothelial growth factor (VEGF) levels were determined by Western blotting of whole eye extracts prepared from P15 mice during OIR (5 days of hyperoxia and 3 days of normoxia) when maximum levels of VEGF were expressed (Wang S, et al. Attenuation of Retinal Vascular Development and Neovascularization during Oxygen-Induced Ischemic Retinopathy in Bcl-2 -/- Mice. Developmental Biol. 2005;279:205-219). Mice were euthanized by CO2 inhalation, then eyes from 2 or 3 mice dissected, homogenized in 0.2 ml of RIPA buffer, 10 mM HEPES pH 7.6, 142.5 mM KCl, 1% NP-40, and protease inhibitor cocktail, (Roche Applied Science, Indianapolis, Ind.), sonicated briefly, and incubated at 4° C. for 20 min. […] Supernatants were transferred to a clean tube, and protein concentrations were determined using the DC Protein Assay (Bio-Rad Laboratories, Hercules, Calif., Cat. No. 500-011 1). Approximately 20 μg of protein from the centrifuged homogenates were analyzed by SDS-PAGE (4-20% Tris-Glycin gel, Invitrogen, Carlsbad, Calif.) under reducing conditions and transferred to a nitrocellulose membrane. […] For quantitative assessments, the band intensities relative to loading controls were determined by scanning the blots using the Molecular Dynamics Storm 860 Scanner and Image Quant Software (Amersham Biosciences, Piscataway, N.J.).
# [2] = Toxic effect assessment: body weight of mice during OIR; conditions: mouse, in vivo
# Source text: In the OIR studies, all pups had similar body weight prior to initiation of the experiment (P12) and after exposure to high oxygen (P17).
# [3] = system: retinal EC; test: Retinal EC transwell migration assay; type: cell-based, mouse; conditions: 10 μM calcitriol, 3 h
# Protocol: Retinal EC migration was determined using both wound migration and transwell assays. […] Wound closure was monitored by phase microscopy, and digital images were obtained at different time points used for quantitative assessment of migration. For transwell migration, wells (8 μm pore size, 6.5 mm membrane; Costar) were coated with Matrigel™ (200 μg/ml) or fibronectin (2 μg/ml) in PBS on the bottom side at 4° C. overnight. The next day, inserts were rinsed with PBS, blocked in PBS containing 2% BSA for 1 h at room temperature, and washed with PBS. Cells were removed by trypsin-EDTA, counted, and resuspended at 1×10^6 cells/ml in serum-free medium. Inserts were placed in 24-well dishes (Costar) containing 0.5 ml of serum-free medium and 0. 1 ml of cell suspension was then added to the top of the insert. […] The inserts were then mounted on a slide cell side up, and the number of cells which migrated to the bottom of the filter was determined by counting 10 high power fields at X200 magnification.
# FIG. 5C illustrate is a quantification of the transwell assay as described above. […] Cells were removed by trypsin-EDTA, counted, and resuspended at 1×10^6 cells/ml in serum-free medium. […] The inserts were then mounted on a slide cell side up and the number of cells which migrated to the bottom of the filter was determined by counting 10 high power fields at ×200 magnification. […]
# [4] = system: retinal endothelial cells; test: Retinal endothelial cell proliferation assay (CellTiter 96 AQueous); type: cell-based, mouse; conditions: for Relative Survival: relative to solvent control
# Protocol: Primary mouse retinal endothelial cell (REC) cultures were prepared and maintained as described previously (Su X, et al., Isolation and characterization of murine retinal endothelial cells. Mol Vision. 2003;9:171-178). Briefly, REC were isolated from wild type or transgenic-immortomouse by collagenase digestion of retina and affinity purification using magnetic beads coated with platelet/endothelial cell adhesion molecule-1 (anti-PECAM-1). The bound cells were plated on fibronectin-coated wells and expanded. The REC were characterized for expression and localization of endothelial cell markers by fluorescence-activated cell sorting (FACS) analysis and indirect immuno fluorescence staining. The ability of these cells to form capillary like networks was assessed on matrigel™. For cell proliferation assays, retinal endothelial cell (10,000) were plated in triplicate in 96-well plates and incubated overnight. […] The degree of proliferation was assessed using the nonradioactive cell proliferation assay (CellTiter 96® AQueous; Promega, Madison, Wis.) as recommended by the supplier.
# [5] = system: retinoblastoma; conditions: 0.05 μg/d, mice; cited from earlier work
# [6] = system: retinal EC; test: Retinal EC wound migration assay; type: cell-based, mouse; conditions: 10 μM calcitriol, 0, 24 and 48 hours
# Protocol: Retinal EC migration was determined using both wound migration and transwell assays. […] Wound closure was monitored by phase microscopy, and digital images were obtained at different time points used for quantitative assessment of migration. For transwell migration, wells (8 μm pore size, 6.5 mm membrane; Costar) were coated with Matrigel™ (200 μg/ml) or fibronectin (2 μg/ml) in PBS on the bottom side at 4° C. overnight. The next day, inserts were rinsed with PBS, blocked in PBS containing 2% BSA for 1 h at room temperature, and washed with PBS. Cells were removed by trypsin-EDTA, counted, and resuspended at 1×10^6 cells/ml in serum-free medium. Inserts were placed in 24-well dishes (Costar) containing 0.5 ml of serum-free medium and 0. 1 ml of cell suspension was then added to the top of the insert. Cells were allowed to migrate through the filter for 3 h in a tissue culture incubator. After incubation, the cells on the top of the filter were scraped off using a cotton swab; the membrane was then fixed in 4% paraformaldehyde and stained with hematoxylin and eosin. The inserts were then mounted on a slide cell side up, and the number of cells which migrated to the bottom of the filter was determined by counting 10 high power fields at X200 magnification.
# [7] = system: retinal neovascularization; test: Mouse oxygen-induced ischemic retinopathy (OIR) model, retinal neovascularization; type: in vivo; conditions: for inhibition of neovascularization: P17 mice
# Protocol: All experimental procedures involving animals were performed according to the ARVO Statement for the Use of Animals in Ophthalmic and Vision Research. […] In this model, 7-day-old (P7) pups (8-10 pups) and their mother were placed in an airtight incubator and exposed to an atmosphere of 75±0.5% oxygen (hyperoxia) for 5 days. Incubator temperature was maintained at 23±2° C., and oxygen was continuously monitored with a PROOX model 110 oxygen controller (Reming Bioinstruments Co., Redfield, N.Y.). Mice were then brought to room air for 5 days. Maximum retinal neovascularization occurred from P12 to P17. […] The other half of the littermates was injected with 0.1 ml of mineral oil. Generally one eye from each mouse was used for histochemical analysis and the other eye for histological evaluation as outlined below. These experiments were repeated at least 3 times for each dose.
# Briefly, P17 mouse eyes were enucleated and briefly fixed in 4% paraformaldehyde in phosphate buffered saline (PBS) (10 min on ice). The paraformaldehyde fixed eyes were then fixed in 70% ethanol for at least 24 h at −20° C. Retinas were dissected in PBS and then washed with PBS 3 times, 10 min each. Following incubation in blocking buffer (50% fetal calf serum, 20% normal goat serum (NGS) in PBS) for 2h, the retinas were incubated with rabbit anti-mouse collagen IV (Chemicon, diluted 1:500 in PBS containing 20% fetal calf serum, 20% normal goat serum) at 4° C. overnight. Retinas were then washed 3 times with PBS, 10 min each, incubated with a secondary antibody Alexa 594-labeled goat-anti-rabbit (Invitrogen, Carlsbad, Calif.), at 1:500 dilution prepared in PBS containing 20% FCS, 20% NGS for 2 h at room temperature, washed 4 times with PBS (30 min each), and mounted on a slide with PBS/glycerol (2vol/1vol). Retinas were viewed by fluorescence microscopy, and images were captured in digital format using a Zeiss microscope (Carl Zeiss, Chester, Va.).
# Quantification of retinal neovascularization on P17 was performed by counting vascular cell nuclei anterior to the […] (Wang S, et al., Attenuation of Retinal Vascular Development and Neovascularization during Oxygen-Induced Ischemic Retinopathy in Bcl-2 -/- Mice. Developmental Biol. 2005;279:205-219). Briefly, mice eyes were enucleated, fixed in formalin for 24 h, and embedded in paraffin. Serial sections (6 μm), each separated by at least 40 μm, were taken from around the region of the optic nerve. The hematoxylin- and PAS-stained sections were examined in masked fashion, by two independent observers without the knowledge of the samples identity, the presence of neovascular tufts projecting into the vitreous from the retina. […]
# [8] = system: retinal endothelial cells; test: Retinal endothelial cell capillary morphogenesis in Matrigel; type: cell-based, mouse; conditions: 10 μM calcitriol, 18 h
# Protocol: The ability of the cultured retinal endothelial cells to form capillary like networks was assessed on Matrigel™ (B D Biosciences, San Jose, Calif.). The capillary morphogenesis assays in Matrigel™ were performed as previously described (Su X, et al., Isolation and characterization of murine retinal endothelial cells. Mol Vision. 2003;9:171-178; Rothermel T A, et al., Polyoma virus middle-T-transformed PECAM-1 deficient mouse brain endothelial cells proliferate rapidly in culture and form hemangiomas in mice. J Cell Physiol. 2005;202:230-239). Briefly, 0.5 ml of Matrigel™ was added to a cold 35 mm tissue culture plate and incubated at 37° C. for at least 30 min to allow the Matrigel™ to harden. […] Cultures were monitored for 6-48 h, and images were captured in digital format after 18 h when maximum organization was observed. […] The capillary network formed by control cells began to fall apart at 24-48 h.
smiles,measurement,setting,value
"C=C1/C(=C\C=C2/CCC[C@]3(C)[C@@H]([C@H](C)CCCC(C)(C)O)CC[C@@H]23)C[C@@H](O)C[C@@H]1O [calcitriol, 1α,25-dihydroxyvitamin D3]",Relative Intensity of Expressed VEGF,"[1]; 0.025 μg (~5 μg/Kg), n = 3, P15 eye extracts, relative to β-catenin, mean ± SD, control 0.39 ± 0.08",0.37 ± 0.06 (SD)
same,difference in VEGF expression between control and calcitriol-treated eyes,"[1]; 5 μg/Kg, P15 mice during OIR",no significant difference
same,Body Weight,[2],5.04 ± 0.23
same,mortality during OIR experiments,[2],None of the experimental animals died
same,retinal EC migration through filter coated with Matrigel,[3],no significant effect
same,retinal EC migration through filters coated with fibronectin,[3]; compared to solvent control (not shown),slightly enhanced
same,Relative Survival,"[4]; 0.25 μM calcitriol, 3 days",108%
same,Relative Survival,"[4]; 0.50 μM calcitriol, 3 days",111%
same,Relative Survival,"[4]; 10.00 μM calcitriol, 3 days",111%
same,Relative Survival,"[4]; 50.00 μM calcitriol, 3 days",87%
same,Relative Survival,"[4]; 100.00 μM calcitriol, 3 days",12%
same,inhibition at 100 µM,"[4]; Mus musculus, Endothelial cell, 72 h, read-out: inhibition of retinal endothelial cell proliferation, 100 μM calcitriol, 3 days",90%
same,effect on retinal endothelial cell proliferation,"[4]; calcitriol 0-10 μM, 9 days",no effect; also recorded: minimal effects
same,effect on retinal endothelial cell proliferation,[4]; calcitriol 50 μM and higher,significant inhibition; also recorded: Significant toxicity
same,effect on retinal endothelial cell proliferation,"[4]; calcitriol up to 10 μM, 3 days",No significant inhibition
same,effect on retinal endothelial cell proliferation,"[4]; calcitriol up to 10 μM, 3 days, listed as Calcitriol",no effect
same,decrease in retinal involvement of retinoblastoma compared to controls,[5],50%
same,retinal EC wound migration vs ethanol control,[6],not significant
same,MEAN NUMBER OF ENDOTHELIAL NUCLEI,"[7]; 0.025 μg (~5 μg/Kg), n = 4, mean ± SD, P17, control 39.9 ± 6.4, P < 0.001",3.8 ± 2.2 (SD)
same,inhibition of neovascularization,"[7]; 0.5 μg/Kg calcitriol, vs control",60%
same,inhibition of neovascularization,"[7]; 2.5 μg/Kg calcitriol, vs control",75%
same,inhibition of retinal neovascularization,"[7]; 5 μg/Kg (0.025 μg) calcitriol i.p. per day P12 to P17, P17 mice, vs control",greater than 90%
same,capillary morphogenesis in Matrigel,[8],completely inhibited; also recorded: completely abolished
same,capillary morphogenesis in Matrigel,[8]; listed as Calcitriol,no capillaries are observed
